Where two headings read alike, the source gives them in different places.
Experiments:
HTT mRNA = assay: RT-qPCR splicing assay, HTT canonical junction (CJ) and alternative junction (AJ) mRNA; assay type: cell-based, human; details: Homo sapiens; for AC50: increase in HTT alternative junction (AJ) mRNA, read-out: HTT AJ AC50
In short: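 A673 cells (normalized to PPIA) or K562 cells (normalized to GAPDH or GUSB) were treated 24 h at 37 °C with an 11-point 3-fold dilution series, top 10 uM, DMSO ≤0.25%. Cell lysates went to one-step RT-qPCR measuring canonical- and alternative-junction MYB or HTT transcripts.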

SMN2 mRNA = assay: RT-qPCR splicing assay, SMN2 canonical junction (CJ) mRNA; assay type: cell-based, human; details: Homo sapiens; Table 5 panel; canonical junction qPCR; compound concentration having 50% response in CJ decrease; read-out: SMN2 IC50 (decrease in CJ mRNA levels)
In short: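 A673 or K562 cells were treated for 24 h at 37 °C with compound in 11-point 3-fold dilution (top 10 uM final, DMSO ≤0.25%). Lysates then went to one-step RT-qPCR measuring canonical-junction mRNA, normalized to GAPDH, GUSB or PPIA.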

[1] = decrease in HTT canonical junction (CJ) mRNA, RT-qPCR, read-out: HTT CJ IC50
[2] = Table 5 panel, canonical junction qPCR, compound concentration having 50% response in CJ decrease, read-out: HTT IC50 (decrease in CJ mRNA levels)

Row | IC50 (HTT mRNA; [1]) [µM] | IC50 (HTT mRNA; [2]) [µM] | IC50 (SMN2 mRNA) [µM] | Structure (SMILES) | AC50 (HTT mRNA; RT-qPCR) [µM]
1 | 1 to 10 | 1 to 10 | 0.1 to 1 | Cc1cn2nc(-c3ccc4c(=O)n(C5CCN(C)CC5)cnc4c3)cc2c(C)n1 [Compound 303] | 1 to 10
2 | 1 to 10 | 0.1 to 1 | < 0.1 | CC[C@@H]1C[C@H](n2ncc3cc(-c4cc(C)c5nc(C)cn5n4)ccc3c2=O)CCN1 [Compound 304] | 1 to 10
3 | 1 to 10 | 1 to 10 | < 0.1 | Cc1cn2cc(-c3ccc4c(=O)n(C5CCNCC5)cnc4c3)cc(C(F)(F)F)c2n1 [Compound 306] | 1 to 10
4 | 1 to 10 | 1 to 10 | 0.1 to 1 | Cc1cn2cc(-c3ccc4c(=O)n(C5CCN(C)CC5)cnc4c3)ncc2n1 [Compound 308] | 1 to 10
5 | 0.1 to 1 | 0.1 to 1 | < 0.1 | Cc1cn2nc(-c3ccc4c(=O)n(C5CCN(C)CC5)ccc4c3)cc(C)c2n1 [Compound 310] | 0.1 to 1
6 | 1 to 10 | 1 to 10 | 0.1 to 1 | Cc1cc(-c2cnc3c(=O)n(C4CCNCC4)cnc3c2)cc2cn(C)nc12 [Compound 311] | 1 to 10
7 | < 0.1 | < 0.1 | < 0.1 | Cc1cn2nc(-c3cc(F)c4c(=O)n(C5CCNC6(CC6)C5)ncc4c3)cc(C)c2n1 (stereo not drawn) [Compound 312] | < 0.1
8 | 1 to 10 | 1 to 10 | 0.1 to 1 | Cn1cc2cc(-c3cc(F)c4c(=O)n(C5CCNCC5)cnc4c3)cc(F)c2n1 [Compound 314] | 1 to 10
9 | 1 to 10 | 1 to 10 | < 0.1 | Cn1cc2cc(-c3cc(F)c4c(=O)n(C5CCNCC5)cnc4c3)c(F)cc2n1 [Compound 315] | 1 to 10
10 | 0.1 to 1 | 0.1 to 1 | < 0.1 | Cn1cc2cc(-c3cc(F)c4c(=O)n(C5CCNCC5)cnc4c3)cc(C#N)c2n1 [Compound 316] | 0.1 to 1
11 | 0.1 to 1 | 0.1 to 1 | < 0.1 | Cc1cn2cc(-c3cc(F)c4c(=O)n(C5CCNCC5)cnc4c3)cc(C)c2n1 [Compound 317] | 0.1 to 1
12 | < 0.1 | < 0.1 | < 0.1 | Cc1cn2nc(-c3cc(F)c4c(=O)n(C5CCNCC5)cnc4c3)cc2c(C)n1 [Compound 318] | < 0.1
13 | 1 to 10 | 1 to 10 | < 0.1 | Cc1cn2cc(-c3cc(F)c4c(=O)n(C5CCNCC5)cnc4c3)nc2c(C)n1 [Compound 319] | 1 to 10
14 | > 10 | > 10 | 1 to 10 | COc1cc(-c2cc(F)c3c(=O)n(C4CCNCC4)cnc3c2)cnn1 [Compound 320] | > 10
15 | < 0.1 | < 0.1 | < 0.1 | Cc1cn2nc(-c3cc(F)c4c(=O)n(C5CCNCC5)ccc4c3)cc(C)c2n1 [Compound 322] | < 0.1
16 | 1 to 10 | 0.1 to 1 | < 0.1 | Cc1cn2cc(-c3cc(F)c4c(=O)n([C@H]5CCNC[C@H]5F)cnc4c3)cc(F)c2n1 [Compound 338] | 0.1 to 1
17 | > 10 | 1 to 10 | 0.1 to 1 | Cc1cn2cc(-c3cc(F)c4c(=O)n(C5CCNCC5(F)F)cnc4c3)cc(F)c2n1 (stereo not drawn) [Compound 339] | 1 to 10
18 | 0.1 to 1 | 0.1 to 1 | < 0.1 | Cc1cn2cc(-c3cc(F)c4c(=O)n(N5CCNCC5)cnc4c3)cc(F)c2n1 [Compound 340, 5-fluoro-7-{8-fluoro-2-methylimidazo[1,2-a]pyridin-6-yl}-3-(piperazin-1-yl)quinazolin-4-one] | 0.1 to 1

Row | IC50 (HTT mRNA; [1]) [µM] | IC50 (HTT mRNA; [2]) [µM] | IC50 (SMN2 mRNA) [µM] | Structure (SMILES) | AC50 (HTT mRNA; RT-qPCR) [µM]
19 | 0.1 to 1 | < 0.1 | < 0.1 | Cc1cn2cc(-c3cc(F)c4c(=O)n(C5=CCNCC5)cnc4c3)cc(F)c2n1 [Compound 342] | < 0.1
20 | < 0.1 | < 0.1 | < 0.1 | Cc1cn2nc(-c3cc(N(C)C)c4c(=O)n(C5CCNC6(CC6)C5)cnc4c3)cc(C)c2n1 (stereo not drawn) [Compound 345] | < 0.1
21 | 0.1 to 1 | 0.1 to 1 | < 0.1 | Cc1cn2cc(-c3cc(F)c4c(=O)n([C@H]5CCN[C@H](C)C5)cnc4c3)cc(F)c2n1 [Compound 346, trans-5-fluoro-7-(8-fluoro-2-methylimidazo[1,2-a]pyridin-6-yl)-3-(2-methylpiperidin-4-yl)quina-zolin-4(3H)-one] | 0.1 to 1
22 | > 10 | > 10 | > 10 | Cc1cn2cc(-c3cc(F)c4c(=O)n([C@H]5CCNC[C@@H]5O)cnc4c3)cc(F)c2n1 [Compound 347, 5-fluoro-7-{8-fluoro-2-methylimidazo[1,2-a]pyridin-6-yl}-3-[(3S,4S)-3-hydroxypiperidin-4-yl]quinazolin-4-one] | > 10
23 | > 10 | > 10 | > 10 | Cc1cn2cc(-c3cc(F)c4c(=O)n([C@H]5CNCC[C@@H]5O)cnc4c3)cc(F)c2n1 [Compound 348, 5-fluoro-7-{8-fluoro-2-methylimidazo[1,2-a]pyridin-6-yl}-3-[(3S,4S)-4-hydroxypiperidin-3-yl]quinazolin-4-one] | > 10
24 | 0.1 to 1 | 0.1 to 1 | < 0.1 | Cc1cn2nc(-c3ccc4c(=O)n([C@H]5CCNC6(CC6)C5)cnc4c3)cc(C)c2n1 [Compound 349, 3-[(7S)-4-azaspiro[2.5]octan-7-yl]-7-{2,8-dimethylimidazo[1,2-b]pyridazin-6-yl}quinazolin-4-one] | 0.1 to 1
25 | < 0.1 | < 0.1 | < 0.1 | Cc1cn2nc(-c3ccc4c(=O)n([C@@H]5CCNC6(CC6)C5)cnc4c3)cc(C)c2n1 [Compound 350, 3-[(7R)-4-azaspiro[2.5]octan-7-yl]-7-{2,8-dimethylimidazo[1,2-b]pyridazin-6-yl}quinazolin-4-one] | < 0.1
26 | < 0.1 | < 0.1 | < 0.1 | Cc1cn2nc(-c3cc(F)c4c(=O)n(C5CCNC6(CC6)C5)cnc4c3)cc(C)c2n1 (stereo not drawn) [Compound 351] | < 0.1
27 | > 10 | > 10 | > 10 | Cc1cn2cc(-c3cc(F)c4c(=O)n(C5CNCCC5=O)cnc4c3)cc(F)c2n1 (stereo not drawn) [Compound 352, 5-fluoro-7-{8-fluoro-2-methylimidazo[1,2-a]pyridin-6-yl}-3-(4-oxopiperidin-3-yl)quinazolin-4-one] | > 10
28 | 0.1 to 1 | 0.1 to 1 | < 0.1 | Cc1cn2cc(-c3cc(F)c4c(=O)n(C5CCCNCC5)cnc4c3)cc(F)c2n1 (stereo not drawn) [Compound 353, 3-(azepan-4-yl)-5-fluoro-7-{8-fluoro-2-methylimidazo[1,2-a]pyridin-6-yl}quinazolin-4-one] | 0.1 to 1
29 | 1 to 10 | 1 to 10 | 1 to 10 | Cc1ncc(-c2ccc3c(=O)n(C4CCNCC4)cnc3c2)cn1 [Compound 354, 7-(2-methylpyrimidin-5-yl)-3-(piperidin-4-yl)quinazolin-4(3H)-one] | 1 to 10
30 | < 0.1 | 0.1 to 1 | < 0.1 | Cc1cn2nc(-c3cc(C)c4c(=O)n(C5CCNCC5)cnc4c3)cc(C)c2n1 [Compound 355] | 0.1 to 1
31 | < 0.1 | 0.1 to 1 | < 0.1 | Cc1cn2nc(-c3cc(F)c4c(=O)n([C@@H]5CCNC6(CC6)C5)cnc4c3)cc(C)c2n1 [Compound 356] | 0.1 to 1
32 | > 10 | 1 to 10 | 0.1 to 1 | CNc1cc(-c2cc(F)c3nc(C)cn3c2)cc2ncn(C3CCNCC3)c(=O)c12 [Compound 358, 7-{8-fluoro-2-methylimidazo[1,2-a]pyridine-6-yl}-5-(methylamino)-3-(piperidin-4-yl)quinazolin-4-one] | 1 to 10
33 | 1 to 10 | 1 to 10 | < 0.1 | CNc1cc(-c2cc(C)c3nc(C)cn3n2)cc2ncn(C3CCNCC3)c(=O)c12 [Compound 359, 7-{2,8-dimethylimidazo[1,2-b]pyridazin-6-yl}-5-(methylamino)-3-(piperidin-4-yl)quinazolin-4-one] | 1 to 10
34 | > 10 | > 10 | 1 to 10 | CNc1cc(-c2cn3cc(C)nc3c(C)n2)cc2ncn(C3CCNCC3)c(=O)c12 [Compound 360, 7-{2,8-dimethylimidazo[1,2-a]pyrazine-6-yl}-5-(methylamino)-3-(piperidin-4-yl)quinazolin-4-one] | > 10
35 | < 0.1 | < 0.1 | < 0.1 | Cc1cc(-c2cc(F)c3c(=O)n(C4CCNC5(CC5)C4)cnc3c2)nc2cn(C)nc12 (stereo not drawn) [Compound 361, 3-{4-azaspiro[2.5]octan-7-yl}-7-{2,7-dimethylpyrazolo[4,3-b]pyridin-5-yl}-5-fluoroquinazolin-4-one] | < 0.1
36 | > 10 | > 10 | 0.1 to 1 | Cc1cn2nc(-c3cc(O)c4c(=O)n(C5CCNC5)cnc4c3)cc(C)c2n1 (stereo not drawn) [Compound 362, 7-{2,8-dimethylimidazo[1,2-b]pyridazin-6-yl}-5-hydroxy-3-(pyrrolidin-3-yl)quinazolin-4-one] | > 10
